Reference: patent US9481670B2, “Triazine compounds” (Sphaera Pharma PTE. Ltd., priority 2011, dated 2016)

tested on: not listed separately; test: Pharmacokinetic study, oral dosing, plasma concentration by LC-MS/MS; assay type: in vivo; conditions: female swiss mice, fasted overnight, oral 3 mg/kg in PEG 400, plasma
Method: For pharmacokinetic study female swiss mice were used. The swiss mice weighing 25-30 g, fasted overnight, were orally dosed at 3 mg/kg body weight of compound in PEG 400. Blood samples (40 μl) were collected from each mouse by retro-orbital bleeding at 0, 0.16, 0.5, 1, 2, 4, 6 and 8 h after dosing into the tubes containing heparin as an anticoagulant. The samples were stored in ice and within 1 h after collection samples were centrifuged at 10000 RPM at 4° C. Plasma was collected and stored at −80° C. until analyis. The concentration of compounds in plasma were determined by liquid chromatography-tandem mass spectrometry (LC-MS/MS).
The protein precipitation method was used to extract the compounds. Acetonitrile was added to plasma, vortexed and centrifuged at 10000 RPM at 4° C. The supenatent was collected and injected onto the column. A CTC HTC PAL auto sampler (LEAP Technologies) linked to a Shimadzu SCL-10A VP HTC controller with LC-10AD pumps (Shimadzu), coupled with a Sciex API 3000 triple quadrupole mass spectrometer were used for the LC-MS/MS analysis. Some compounds as per the present invention are represented in the table below, were tested and their PK values are reported in Table 2.

AUC [nM-hr] | Cmax [nM] | Elimination t1/2 [h] | Tmax [h] | Compound
5849 | 1660 | 4.34 | 1.33 | CN(C)C(=O)[C@H]1CC[C@H](Oc2nc(-c3cccc4[nH]ncc34)nc(N3CCOCC3)n2)CC1 [Compound 1144, (1r,4r)-4-21-{[4-1-(1H-indazol-4-yl)-6-5-(morpholin-4-yl)-1,3,5-triazin-2-yl]oxy}-N,N-dimethylcyclohexane-1-carboxamide]

same assay, conditions: mouse; female swiss mice, fasted overnight, oral 3 mg/kg in PEG 400, plasma

Cmax [nM] | Compound
1240 | CNC(=O)c1ccc(Oc2nc(-c3cccc4[nH]ncc34)nc(N3CCOCC3)n2)cc1 [Compound 1113, 4-14-{[4-1-(1H-indazol-4-yl)-6-5-(morpholin-4-yl)-1,3,5-triazin-2-yl]oxy}-N-methylbenzamide]

same assay, conditions: mouse; female swiss mice, fasted overnight, oral 3 mg/kg in PEG 400, plasma; read-out: AUC

AUC [µM·h] | Compound
5.25 | CNC(=O)c1ccc(Oc2nc(-c3cccc4[nH]ncc34)nc(N3CCOCC3)n2)cc1 [Compound 1113, 4-14-{[4-1-(1H-indazol-4-yl)-6-5-(morpholin-4-yl)-1,3,5-triazin-2-yl]oxy}-N-methylbenzamide]

same assay, conditions: mouse; female swiss mice, fasted overnight, oral 3 mg/kg in PEG 400, plasma; read-out: Elimination t1/2 (converted)

half-life [h] | Compound
4.86 | CNC(=O)c1ccc(Oc2nc(-c3cccc4[nH]ncc34)nc(N3CCOCC3)n2)cc1 [Compound 1113, 4-14-{[4-1-(1H-indazol-4-yl)-6-5-(morpholin-4-yl)-1,3,5-triazin-2-yl]oxy}-N-methylbenzamide]

same assay, conditions: mouse; female swiss mice, fasted overnight, oral 3 mg/kg in PEG 400, plasma; read-out: Tmax

Tmax [h] | Compound
1 | CNC(=O)c1ccc(Oc2nc(-c3cccc4[nH]ncc34)nc(N3CCOCC3)n2)cc1 [Compound 1113, 4-14-{[4-1-(1H-indazol-4-yl)-6-5-(morpholin-4-yl)-1,3,5-triazin-2-yl]oxy}-N-methylbenzamide]

target: T1, PI3K alpha (Homo sapiens, UniProt P42336); test: P110 Alpha TR-FRET Assay (PI3K alpha kinase assay, HTRF Transcreener ADP Assay); assay type: biochemical; conditions: PI3K (WT)
T1 construct: purchased Millipore Upstate
Summary of the method: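 HTRF Transcreener ADP read-out of ADP formed by PI3K (50 ng enzyme) in 50 mM HEPES pH 7.5, 5 mM MgCl2, 1 mM DTT, 30 μM Na3VO4. Compound preincubated with enzyme 20 min; reaction started with 10 μM ATP and 5 μM PIP2, run 20 min, then ADP-d2/anti-ADP cryptate detection for 1 h.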

T1 sequence (P42336 whole entry): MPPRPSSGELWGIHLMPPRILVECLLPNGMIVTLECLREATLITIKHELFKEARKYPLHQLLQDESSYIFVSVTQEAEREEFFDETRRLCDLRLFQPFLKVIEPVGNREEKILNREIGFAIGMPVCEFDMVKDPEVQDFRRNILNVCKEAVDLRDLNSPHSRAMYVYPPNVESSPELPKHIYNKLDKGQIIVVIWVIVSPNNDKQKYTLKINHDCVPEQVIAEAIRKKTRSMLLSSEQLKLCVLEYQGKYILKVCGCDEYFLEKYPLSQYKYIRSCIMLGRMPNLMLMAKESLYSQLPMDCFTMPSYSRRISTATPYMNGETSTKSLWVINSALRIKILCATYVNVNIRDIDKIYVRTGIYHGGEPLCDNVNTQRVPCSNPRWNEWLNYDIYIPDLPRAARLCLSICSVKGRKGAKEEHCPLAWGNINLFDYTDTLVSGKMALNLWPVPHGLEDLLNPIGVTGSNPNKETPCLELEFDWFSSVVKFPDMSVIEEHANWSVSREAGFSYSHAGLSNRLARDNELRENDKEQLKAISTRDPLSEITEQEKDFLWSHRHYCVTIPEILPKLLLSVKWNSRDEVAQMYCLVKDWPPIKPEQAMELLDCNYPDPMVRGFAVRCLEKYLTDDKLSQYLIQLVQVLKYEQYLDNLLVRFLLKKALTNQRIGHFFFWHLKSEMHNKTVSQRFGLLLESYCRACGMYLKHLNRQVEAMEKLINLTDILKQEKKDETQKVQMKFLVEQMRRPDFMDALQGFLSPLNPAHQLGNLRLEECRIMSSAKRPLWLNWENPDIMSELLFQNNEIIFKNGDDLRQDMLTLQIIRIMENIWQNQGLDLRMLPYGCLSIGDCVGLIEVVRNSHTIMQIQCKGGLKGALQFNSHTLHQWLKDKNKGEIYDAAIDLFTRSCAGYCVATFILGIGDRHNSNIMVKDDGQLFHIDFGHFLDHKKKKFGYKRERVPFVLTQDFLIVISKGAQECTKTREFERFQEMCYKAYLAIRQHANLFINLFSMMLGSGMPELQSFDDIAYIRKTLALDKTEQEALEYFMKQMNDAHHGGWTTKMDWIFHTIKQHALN
T1 sequence (P27986 whole entry partner): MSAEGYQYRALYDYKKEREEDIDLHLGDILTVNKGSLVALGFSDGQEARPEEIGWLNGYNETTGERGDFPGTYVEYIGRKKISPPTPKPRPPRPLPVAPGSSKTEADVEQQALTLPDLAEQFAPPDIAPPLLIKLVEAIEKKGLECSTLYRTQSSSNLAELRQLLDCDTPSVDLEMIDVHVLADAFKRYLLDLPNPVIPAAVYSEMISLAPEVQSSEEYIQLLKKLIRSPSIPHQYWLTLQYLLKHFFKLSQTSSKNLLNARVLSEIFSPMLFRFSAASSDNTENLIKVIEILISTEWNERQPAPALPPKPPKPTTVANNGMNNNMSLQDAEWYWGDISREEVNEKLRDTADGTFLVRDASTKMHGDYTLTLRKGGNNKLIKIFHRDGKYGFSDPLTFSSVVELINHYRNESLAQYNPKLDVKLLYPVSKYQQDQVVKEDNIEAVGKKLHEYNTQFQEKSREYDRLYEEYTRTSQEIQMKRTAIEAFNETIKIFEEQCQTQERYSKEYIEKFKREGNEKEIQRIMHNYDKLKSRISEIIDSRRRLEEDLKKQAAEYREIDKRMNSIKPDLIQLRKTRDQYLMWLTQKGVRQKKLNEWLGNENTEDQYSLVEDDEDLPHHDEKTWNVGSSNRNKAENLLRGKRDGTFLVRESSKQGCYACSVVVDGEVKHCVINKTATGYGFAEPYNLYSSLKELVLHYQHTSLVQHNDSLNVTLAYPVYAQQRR

Compound | IC50 [µM]
CN(C)C(=O)[C@H]1CC[C@H](Oc2nc(-c3cccc4[nH]ncc34)nc(N3CCOCC3)n2)CC1 [Compound 1144, (1r,4r)-4-21-{[4-1-(1H-indazol-4-yl)-6-5-(morpholin-4-yl)-1,3,5-triazin-2-yl]oxy}-N,N-dimethylcyclohexane-1-carboxamide] | < 5
N-[(4E)-1-8-[4-1-(1-21-{4-24-[(4E)-4-37-(hydroxyimino)azepan-1-yl]-6-26-(morpholin-4-yl)-1,3,5-triazin-2-yl}-1H-indazol-4-yl)-6-5-(morpholin-4-yl)-1,3,5-triazin-2-yl]azepan-4-ylidene]hydroxylamine [Compound 1123] | < 5
CC1COCC(C)N1c1nc(Oc2ccc(C(=O)N(C)C)cc2)nc(-c2cccc3[nH]ncc23)n1 (centres unmarked) [Compound 1097, 4-9-{[4-5-(3-28,5-32-dimethylmorpholin-4-yl)-6-1-(1H-indazol-4-yl)-1,3,5-triazin-2-yl]oxy}-N,N-dimethylbenzamide] | < 5
O=C(O)C1(Nc2nc(-c3cccc(O)c3)nc(N3CCOCC3)n2)CCCC1 [Compound 1153, 1-((4-(3-hydroxyphenyl)-6-morpholino-1,3,5-triazin-2-yl)amino)cyclopentanecarboxylic acid] | < 5
CN(C)C(=O)Nc1ccc(Oc2nc(-c3cccc4[nH]ncc34)nc(N3CCOCC3)n2)cc1 [Compound 1106, 1-(4-14-{[4-1-(1H-indazol-4-yl)-6-5-(morpholin-4-yl)-1,3,5-triazin-2-yl]oxy}phenyl)-3,3-dimethylurea] | < 5
CC(Nc1nc(-c2cccc(NS(C)(=O)=O)c2)nc(N2CCOCC2)n1)C(=O)O (centres unmarked) [Compound 1138, 2-((4-(3-(methylsulfonamido)phenyl)-6-morpholino-1,3,5-triazin-2-yl)amino)propanoic acid] | > 5
CS(=O)(=O)N1CCN(C(=O)CNc2nc(-c3ccc(O)nc3)nc(N3CCOCC3)n2)CC1 [Compound 1074, 2-((4-(6-hydroxypyridin-3-yl)-6-morpholino-1,3,5-triazin-2-yl)amino)-1-(4-(methylsulfonyl)piperazin-1-yl)ethanone] | < 5
CS(=O)(=O)N1CCN(C(=O)CNc2nc(-c3ccc(F)nc3)nc(N3CCOCC3)n2)CC1 [Compound 1080, 2-((4-(6-fluoropyridin-3-yl)-6-morpholino-1,3,5-triazin-2-yl)amino)-1-(4-(methylsulfonyl)piperazin-1-yl)ethanone] | > 5
O=C(O)CNc1nc(-c2cccc3[nH]ncc23)nc(N2CCOCC2)n1 [Compound 1236, 2-((4-(1H-indazol-4-yl)-6-morpholino-1,3,5-triazin-2-yl)amino)acetic acid] | < 5
CS(=O)(=O)N1CCC(COc2nc(-c3cnc(N)nc3)nc(N3CCOCC3)n2)CC1 [Compound 1005, 5-(4-((1-(methylsulfonyl)piperidin-4-yl)methoxy)-6-morpholino-1,3,5-triazin-2-yl)pyrimidin-2-amine] | < 5
c1cc(-c2nc(N3CCOCC3)nc(N3CCOCC3)n2)c2cn[nH]c2c1 [Compound 1233, 4-8-[4-3,6-5-bis(morpholin-4-yl)-1,3,5-triazin-2-yl]-1H-indazole] | < 5
CN(C)C(=O)Cc1cccc(Oc2nc(-c3ccc(N)nc3)nc(N3CCOCC3)n2)c1 [Compound 1013, 2-26-(3-20-{[4-1-(6-11-aminopyridin-3-yl)-6-5-(morpholin-4-yl)-1,3,5-triazin-2-yl]oxy}phenyl)-N,N-dimethylacetamide] | < 5
COC1CN(C(=O)c2cccc(Nc3nc(-c4cccc5[nH]ncc45)nc(N4CCOCC4)n3)c2)C1 [Compound 1164, (3-((4-(1H-indazol-4-yl)-6-morpholino-1,3,5-triazin-2-yl)amino)phenyl)(3-methoxyazetidin-1-yl)methanone] | < 5
NS(=O)(=O)Nc1ccc(Oc2nc(-c3cccc4[nH]ncc34)nc(N3CCOCC3)n2)cc1 [Compound 1092, N-(4-14-{[4-1-(1H-indazol-4-yl)-6-5-(morpholin-4-yl)-1,3,5-triazin-2-yl]oxy}phenyl)aminosulfonamide] | < 5
Nc1ncc(-c2nc(N3CCNCC3)nc(N3CCOCC3)n2)cn1 [Compound 1077, 5-13-[4-5-(morpholin-4-yl)-6-3-(piperazin-1-yl)-1,3,5-triazin-2-yl]pyrimidin-2-amine] | < 5
Oc1cccc(-c2nc(N3CCOCC3)nc(N3CCOCC3)n2)c1 [Compound 1160, 3-6-[4-1,6-2-bis(morpholin-4-yl)-1,3,5-triazin-2-yl]phenol] | < 5
CS(=O)(=O)N1CCN(c2nc(-c3cnc(N)nc3)nc(N3CCOCC3)n2)CC1 [Compound 1062, 5-13-[4-3-(4-22-methanesulfonylpiperazin-1-yl)-6-5-(morpholin-4-yl)-1,3,5-triazin-2-yl]pyrimidin-2-amine] | < 5

Continued, values first:

IC50 [µM] | Compound
> 5 | Cc1nc(N2CCOCC2)nc(N2CCOCC2)n1 [Compound 1045, 2-1-methyl-4-5,6-3-bis(morpholin-4-yl)-1,3,5-triazine]
< 5 | CN(C)C(=O)c1cccc(Nc2nc(-c3cnc(N)nc3)nc(N3CCOCC3)n2)c1 [Compound 1040, 3-((4-(2-aminopyrimidin-5-yl)-6-morpholino-1,3,5-triazin-2-yl)amino)-N,N-dimethylbenzamide]
< 5 | O=C(O)C(Cc1ccccc1)Nc1nc(-c2cccc(O)c2)nc(N2CCOCC2)n1 (centres unmarked) [Compound 1118, 2-((4-(3-hydroxyphenyl)-6-morpholino-1,3,5-triazin-2-yl)amino)-3-phenylpropanoic acid]
> 5 | CN(C)C(=O)c1ccc(Oc2nc(-c3cccc4[nH]ncc34)nc(N3CC(C(N)=O)C3)n2)cc1 [Compound 1047, 1-7-{4-1-[4-11-(dimethylcarbamoyl)phenoxy]-6-5-(1H-indazol-4-yl)-1,3,5-triazin-2-yl}azetidine-3-carboxamide]
> 5 | O=C(O)CNc1nc(-c2cccc(NO)c2)nc(N2CCOCC2)n1 [Compound 1184, 2-((4-(3-(hydroxyamino)phenyl)-6-morpholino-1,3,5-triazin-2-yl)amino)acetic acid]
< 5 | O=C1CCN(c2nc(-c3cccc4[nH]ncc34)nc(N3CCOCC3)n2)CC1 [Compound 1221, 1-8-[4-1-(1H-indazol-4-yl)-6-5-(morpholin-4-yl)-1,3,5-triazin-2-yl]piperidin-4-one]
< 5 | Cc1nc(-c2cccc3[nH]ncc23)nc(N2CCOCC2)n1 [Compound 1226, 4-7-[4-3-methyl-6-5-(morpholin-4-yl)-1,3,5-triazin-2-yl]-1H-indazole]
< 5 | CC(Nc1nc(-c2cccc(O)c2)nc(N2CCOCC2)n1)C(=O)O (centres unmarked) [Compound 1187, 2-((4-(3-hydroxyphenyl)-6-morpholino-1,3,5-triazin-2-yl)amino)propanoic acid]
< 5 | CC1COCCN1c1nc(Oc2ccc(C(=O)N(C)C)cc2)nc(-c2cccc3[nH]ncc23)n1 (centres unmarked) [Compound 1098, 4-9-{[4-1-(1H-indazol-4-yl)-6-5-(3-28-methylmorpholin-4-yl)-1,3,5-triazin-2-yl]oxy}-N,N-dimethylbenzamide]
< 5 | CN(C)C(=O)[C@H]1C[C@H](Oc2nc(-c3cccc4[nH]ncc34)nc(N3CCOCC3)n2)CN1 [Compound 1103, (2R,4S)-4-14-{[4-1-(1H-indazol-4-yl)-6-5-(morpholin-4-yl)-1,3,5-triazin-2-yl]oxy}-N,N-dimethylpyrrolidine-2-carboxamide]
< 5 | CCN1CCC(Oc2nc(-c3cccc4[nH]ncc34)nc(N3CCOCC3)n2)CC1 [Compound 1149, 4-7-{4-3-[(1-25-ethylpiperidin-4-yl)oxy]-6-5-(morpholin-4-yl)-1,3,5-triazin-2-yl}-1H-indazole]
< 5 | CN(C)C(=O)N1CCC(Oc2nc(-c3ccc(N)nc3)nc(N3CCOCC3)n2)CC1 [Compound 1028, 4-20-{[4-1-(6-11-aminopyridin-3-yl)-6-5-(morpholin-4-yl)-1,3,5-triazin-2-yl]oxy}-N,N-dimethylpiperidine-1-carboxamide]
< 5 | NC(=O)Cc1ccccc1Nc1nc(-c2cccc3[nH]ncc23)nc(N2CCOCC2)n1 [Compound 1194, 2-(2-((4-(1H-indazol-4-yl)-6-morpholino-1,3,5-triazin-2-yl)amino)phenyl)acetamide]
